Key:
Experiment in all cases: relative viability (nuclei count vs DMSO), 5 days (fraction); higher = more cells survive
QS11 + OSI-027 = compound: C1CC2=C(C1)C=C(C=C2)OC3=NC(=C4C(=N3)N(C=N4)CC5=CC=C(C=C5)C6=CC=CC=C6)N[C@@H](CC7=CC=CC=C7)CO [QS11] + COc1cccc2cc(-c3nc([C@H]4CC[C@H](C(=O)O)CC4)n4ncnc(N)c34)[nH]c12 [OSI-027] (partner 0.5 µM)
How it was run: (§1)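 One day after seeding in 1536-well plates, lung cancer cell lines were dosed by pin tool. Dosing was either single-drug or a fixed anchor-drug dose plus five library-drug doses (not always all listed) in √10 steps. After 5 days, nuclei were stained in one fix-and-stain step and counted on 4× images, and relative viability is the nuclei count of treated wells over that of vehicle wells, given as the median of duplicate plates.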

QS11 + Pemetrexed = compound: C1CC2=C(C1)C=C(C=C2)OC3=NC(=C4C(=N3)N(C=N4)CC5=CC=C(C=C5)C6=CC=CC=C6)N[C@@H](CC7=CC=CC=C7)CO [QS11] + Nc1nc2[nH]cc(CCc3ccc(C(=O)N[C@@H](CCC(=O)O)C(=O)O)cc3)c2c(=O)[nH]1 [Pemetrexed] (partner 0.2 µM)
How it was run: as §1

QS11 + Vorinostat = compound: C1CC2=C(C1)C=C(C=C2)OC3=NC(=C4C(=N3)N(C=N4)CC5=CC=C(C=C5)C6=CC=CC=C6)N[C@@H](CC7=CC=CC=C7)CO [QS11] + O=C(CCCCCCC(=O)Nc1ccccc1)NO [Vorinostat] (partner 1 µM)
How it was run: as §1

AZ628 + Pictilisib = compound: CC1=C(C=C(C=C1)NC(=O)C2=CC(=CC=C2)C(C)(C)C#N)NC3=CC4=C(C=C3)N=CN(C4=O)C [AZ628] + CS(=O)(=O)N1CCN(Cc2cc3nc(-c4cccc5[nH]ncc45)nc(N4CCOCC4)c3s2)CC1 [Pictilisib] (partner 1 µM)
How it was run: as §1

Cell Line	relative viability (QS11 + OSI-027; first compound 0.08 µM)	relative viability (QS11 + OSI-027; first compound 0.253 µM)	relative viability (QS11 + OSI-027; first compound 0.8 µM)	relative viability (QS11 + OSI-027; first compound 2.53 µM)	relative viability (QS11 + OSI-027; first compound 8 µM)	relative viability (QS11 + Pemetrexed; first compound 0.08 µM)	relative viability (QS11 + Pemetrexed; first compound 0.253 µM)	relative viability (QS11 + Pemetrexed; first compound 0.8 µM)	relative viability (QS11 + Pemetrexed; first compound 2.53 µM)	relative viability (QS11 + Pemetrexed; first compound 8 µM)	relative viability (QS11 + Vorinostat; first compound 0.08 µM)	relative viability (QS11 + Vorinostat; first compound 0.253 µM)	relative viability (QS11 + Vorinostat; first compound 0.8 µM)	relative viability (QS11 + Vorinostat; first compound 2.53 µM)	relative viability (QS11 + Vorinostat; first compound 8 µM)	relative viability (AZ628 + Pictilisib; first compound 0.08 µM)	relative viability (AZ628 + Pictilisib; first compound 0.253 µM)	relative viability (AZ628 + Pictilisib; first compound 0.8 µM)	relative viability (AZ628 + Pictilisib; first compound 2.53 µM)	relative viability (AZ628 + Pictilisib; first compound 8 µM)
LC-2-ad	0.783	0.413	0.873	0.847	0.79	0.273	0.27	0.27	0.294	0.26	0.748	0.739	0.531	0.671	0.74	0.472	0.344	0.122	0.261	0.162
HCC-78	0.405	0.351	0.35	0.435	0.478	0.918	0.935	0.894	0.936	0.857	0.4	0.48	0.518	0.46	0.444	0.373	0.21	0.211	0.228	0.231
SW 1573	0.583	0.655	0.734	0.465	0.278	0.811	0.926	0.792	0.418	0.539	0.912	0.629	0.52	0.296	0.253	0.44	0.34	0.367	0.335	0.27
NCI-H358	0.774	0.854	0.888	0.849	1.01	0.167	0.175	0.146	0.186	0.168	0.64	0.602	0.782	0.65	0.49	0.341	0.289	0.286	0.308	0.349
ChaGo-K-1	0.358	0.666	0.749	0.659	0.569	–	0.269	0.256	0.263	0.255	–	0.799	0.935	0.767	0.745	0.889	–	0.474	0.756	0.743
201T	0.759	0.685	0.662	–	0.836	0.357	0.348	0.328	0.358	0.267	0.937	0.995	0.797	0.866	0.668	0.688	0.659	0.691	0.71	0.723
HCC-44	0.606	0.531	0.512	0.593	0.378	0.72	0.581	0.416	0.675	0.659	1.14	1.05	0.557	0.98	1.01	0.547	0.512	0.427	0.354	0.286
EMC-BAC-2	0.391	0.397	0.452	0.373	0.337	0.461	0.463	0.409	0.594	0.445	0.492	0.434	0.385	0.334	0.325	0.511	0.476	0.455	0.459	0.466
NCI-H2342	0.643	0.703	0.611	0.663	0.636	0.77	0.829	0.809	0.797	0.795	0.759	0.733	0.947	0.669	0.746	–	–	–	–	–
NCI-H522	0.733	0.795	0.722	0.727	1.97	0.824	1.02	0.878	1	0.884	0.799	0.871	0.766	1	0.999	–	–	–	–	–
NCI-H1648	–	0.26	–	0.275	0.247	0.762	0.713	0.637	0.748	0.875	0.506	0.666	0.517	0.505	0.577	–	–	–	–	–
NCI-H1563	0.67	0.775	0.741	0.745	0.693	0.806	0.838	0.722	0.881	0.886	–	–	–	–	–	0.613	0.667	0.657	0.658	0.616
NCI-H1703	–	–	–	–	–	–	–	–	–	–	–	–	–	–	–	0.231	0.235	0.235	0.197	0.251
ABC-1	0.477	0.348	0.519	0.492	0.457	–	–	–	–	–	0.886	0.834	1.02	0.931	1.11	0.764	0.828	0.677	0.643	0.486
Calu-6	–	–	–	–	–	–	–	–	–	–	–	–	–	–	–	0.896	0.64	0.409	0.553	0.144
NCI-H1623	0.417	0.386	0.415	0.445	0.426	–	–	–	–	–	–	–	–	–	–	–	–	–	–	–
A549	–	–	–	–	–	–	–	–	–	–	–	–	–	–	–	0.473	0.378	0.311	0.406	0.138
NCI-H727	0.576	0.708	0.579	0.404	0.461	–	–	–	–	–	1.28	1.16	1.29	1.07	1.37	0.314	0.199	0.184	0.281	0.28
